The values that follow come from patent publication US20070265307A1, “Administration of 4-aminopiperidine compounds for inducing and/or stimulating the growth of keratin fibers and/or preventing loss thereof” (L'OREAL, priority 2006, published 2007).

The subject of this assay is normal human fibroblasts. The experiment in a line: Dermodecontracting effect: spontaneous contraction of attached dermal equivalents (collagen matrix seeded with normal human fibroblasts). The class given is cell-based. The note with it: dermal equivalent, contraction kinetics 0, 4, 8 and 24 hours. An excerpt:
The principle of this test entails studying the effect of the test product on a model of dermal equivalent consisting of a collagen matrix seeded with normal human fibroblasts.
These conditions are suited to mimic, in vitro, the dermal contractile phenomena that occur during facial expressions. Under these conditions, in fact, the cells spontaneously express tensile forces which induce a retraction of the collagen gel. […] The measurement of this surface area makes it possible to evaluate the relaxing effects of the substances brought into contact beforehand with the dermal equivalent.
[…] The experiment is repeated three times.
The dermal equivalents are prepared as described in Asselineau et al., Exp. Cell. Res., 1985,159, 536-539; Models in Dermatology, 1987, vol. 3 pp 1-7, in the following proportions: […]
The collagen used is collagen type I (commercial solution). It is extracted from rat tail or from calf skin by acid hydrolysis and stored in an acidic medium at +4° C.; it polymerizes naturally by heating at 37° C. and by decreasing the degree of acidity. […]
For this, a digital image is acquired for each treated or non-treated dermal equivalent by means of a camera (Camera CCD-Iris Sony DXC-107P) and the surface area is then calculated on each image by means of an image analysis system (Zeiss Axiovision 3.0). […]

On to `c1ccc(CCCNC2CCN(CCc3ccccc3)CC2)cc1` [Compound No. 1, 1-(2-phenylethyl)-4-[N-(3-phenylpropyl)]aminopiperidine], for which the “reduction of the fibroblast contraction, on average over the duration of the experiment, compared with the control” value (tested at 1 μM) is 21%.

As for `CC(NC1CCN(CCc2ccccc2)CC1)c1ccccc1` (centres unmarked) [Compound No. 5, 1-(2-phenylethyl)-4-[N-(1-phenyl-ethyl)]aminopiperidine], the “reduction of the fibroblast contraction, on average over the duration of the experiment, compared with the control” value (tested at 10 μM) is recorded as 40%.
